Laboratory results: US7169592B2, “Producing optically active amino compounds” (Kaneka Corporation, priority 1997, dated 2007)
“And” between values parts separate entries of the source, which are not always exact repeats. Equal values may be shown once. Read-outs that look alike come from different tables or passages of the source. Marks after values point to notes of the source that are not given here.

Legend:
[1] = tested on: Arthrobacter species KNK168 strain; experiment: Amino group donors in whole-cell transamination of 1-(3,4-dimethoxyphenyl)-2-propanone; type: cell-based; conditions: for (R)-DMA Formed: 1% amino group donor, 1% 1-(3,4-dimethoxyphenyl)-2-propanone, 0.1% Triton X-100, pH 8.5, 35° C., 20 hours; for Function as amino group donor (in words): whole cells
Description: The cultured cells were harvested by centrifugation, and the harvested cells were suspended in a reaction mixture (pH 8.5) containing 1% 1-(3,4-dimethoxyphenyl)-2-propanone, 0.1% Triton X-100, and 1% an amino group donor shown in Table 5. The mixture was reacted at 35° C. for 20 hours.

[2] = tested on: Arthrobacter species KNK168 strain; experiment: Inducer added during culture; (R)-DMA formation by the separated cells; type: cell-based; conditions: substance added to medium as inducer; reaction 30° C., 20 hours, 1% 1-(3,4-dimethoxyphenyl)-2-propanone, 1% (RS)-1-methylpropylamine
Description: When culturing the Arthrobacter species KNK168 strain by the method described in Example 1, (RS)-1-methylpropylamine, (RS)-1-methylbutylamine, (RS)-3-amino-2,2-dimethylbutane, (RS)-2-amino-1-butanol, or (RS)-1-phenylethylamine was added to the medium in place of (R)-1-(3,4-dimethoxyphenyl)-2-aminopropane ((R)-DMA). The cells were separated from the culture, and the reaction was carried out at 30° C. for 20 hours using the above cells in a reaction mixture containing 1% 1-(3,4-dimethoxyphenyl)-2-propanone and 1% (RS)-1-methylpropylamine.

[3] = biological target: T1, ω-amino acid transaminase (Pseudomonas putida, UniProt P28269); conditions: purified enzyme, literature; pyruvic acid as amino group acceptor; cited from earlier work
T1 sequence (P28269 1-449): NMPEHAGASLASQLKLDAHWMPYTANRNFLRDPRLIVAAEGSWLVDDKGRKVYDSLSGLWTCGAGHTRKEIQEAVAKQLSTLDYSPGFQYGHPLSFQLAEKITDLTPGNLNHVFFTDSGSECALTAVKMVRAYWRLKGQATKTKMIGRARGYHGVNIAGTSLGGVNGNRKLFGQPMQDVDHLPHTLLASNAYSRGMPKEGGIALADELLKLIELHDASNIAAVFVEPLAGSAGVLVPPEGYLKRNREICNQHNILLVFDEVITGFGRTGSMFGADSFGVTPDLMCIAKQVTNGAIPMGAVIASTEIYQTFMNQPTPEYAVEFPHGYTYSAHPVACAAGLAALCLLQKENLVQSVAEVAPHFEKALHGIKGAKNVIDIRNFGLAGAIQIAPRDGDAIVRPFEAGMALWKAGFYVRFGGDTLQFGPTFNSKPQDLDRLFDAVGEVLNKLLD

[4] = tested on: Transaminase of Present Invention (purified enzyme); experiment: Reactivity of purified transaminase to amino compounds (amino group donors) with pyruvic acid as acceptor; type: biochemical, Arthrobacter sp. KNK168; parameters: Substrate Specificity, relative activity: concentration or dose not given beside the values; conditions: for Substrate Specificity, relative activity: purified enzyme, pyruvic acid as amino group acceptor; for Relative Activity: amino compound 40 mM in substrate solution, pyruvic acid acceptor, pH 8.3, 30° C., 1 hour, (R)-1-phenylethylamine = 100
Source text: (§1) The differences with the ω-amino acid transaminase derived from Pseudomonas sp. F-1 (Agric. Biol. Chem., 42, 2363–2367 (1978), Agric. Biol. Chem., 43, 1043–1048 (1979), J. Biol. Chem., 258, 2260–2265 (1983)) which have been well studied among the ω-amino acid transaminases, and with the benzylamine transaminase of Okada et al. (Japanese Patent Laid-Open No. Hei 6-178685) are summarized and shown in Table 2. In a case of the transaminase reaction in the present invention, the data of the purified enzyme are used, and in cases of those by other two enzymes, the data of the purified enzymes which are disclosed in each of the literature publication and laid-open patent publication are used. Pyruvic acid is used as an amino group acceptor in all cases.
Using the purified enzyme protein obtained in Example 9, reactivities to various amino compounds when using pyruvic acid as an amino acceptor were evaluated. A 150 μl solution of the purified enzyme protein solution diluted ten-folds was added to a 150 μl substrate solution [0.1 M potassium phosphate buffer (pH 8.3), 40 mM pyruvic acid, 0.1 mM pyridoxal phosphate, and 40 mM various amino compounds]. The components were reacted at 30° C. for 1 hour. The reaction tube was transferred into boiling water to stop the reaction, and thereafter, a part of the reaction mixture was diluted five-folds. Ten μl 0.1 M boric acid buffer (pH 8.0) and a 20 μl ethanol solution of 80 mM 4-fluoro-7-nitro-2,1,3-benzoxadiazole (NBD-F) were added to the 10 μl above-mentioned diluted reaction mixture. The resulting mixture was reacted at 60° C. for 1 minute, and thereafter, the resulting mixture was ice-cooled, and 460 μl 5 mM HCl was added thereto. This reaction mixture was analyzed by high-performance liquid chromatography using a fine pack C18-5 column (manufactured by Nippon Bunko) I and using 0.1 M potassium phosphate buffer (pH 6.5) and CH3CN (90:10) as an eluent to detect formation of NBD-Alanine with an excitation wavelength of 470 nm and a detection wave of […]. The results thereof are shown in Table 8 in terms of relative activity in the case of using […] as a substrate.

[5] = tested on: transaminase (intracellular enzyme); experiment: Activity of the transaminase (intracellular enzyme) on typical substrates of ω-aminotransferases; type: biochemical, Arthrobacter sp. KNK168
[6] = tested on: benzylamine transaminase of Okada et al.; conditions: cited from earlier work; for Substrate Specificity, relative activity: purified enzyme, laid-open patent publication, pyruvic acid as amino group acceptor
[7] = tested on: Transaminase of Present Invention (purified enzyme); experiment: Influence of reaction inhibitors on purified transaminase; type: biochemical, Arthrobacter sp. KNK168; conditions: for Relative activity with inhibitor: inhibitor 1 mM, without addition = 100
Source text: as §1

[8] = tested on: benzylamine transaminase of Okada et al.; conditions: without addition = 100, cited from earlier work
[9] = biological target: T1, ω-amino acid transaminase; conditions: inhibitor 1 mM; without addition = 100; cited from earlier work
[10] = tested on: Transaminase of Present Invention; experiment: Usability as amino group donor, transaminase of present invention; type: biochemical, Arthrobacter
Source text: Further, the transaminase derived from Arthrobacter which can be used in the present invention is different from the above-mentioned enzyme derived from Brevibacterium in many other aspects.

[11] = amino group acceptor 2-ketoglutaric acid, (R)-1-phenylethylamine/pyruvic acid = 100 (control)

CCCC(C)N (racemic) [(RS)-1-Methylbutylamine]
(R)-DMA Formed [1]: 54.7% and 56.9% | Function as amino group donor (in words) [1]: functioned as amino group donors | (R)-DMA Formed [2]: 13.0%

CCC(C)N (racemic) [(RS)-1-Methylpropylamine]
(R)-DMA Formed [1]: 28.2% | Function as amino group donor (in words) [1]: functioned as amino group donors | (R)-DMA Formed [2]: 22.3%

CC(N)c1ccccc1 (racemic) [(RS)-1-Phenylethylamine]
(R)-DMA Formed [1]: 61.3% | Function as amino group donor (in words) [1]: functioned as amino group donors | (R)-DMA Formed [2]: 8.0%

CCC(N)CO (racemic) [(RS)-2-Amino-1-butanol]
(R)-DMA Formed [2]: 12.9%

CC(N)C(C)(C)C (racemic) [(RS)-3-Amino-2,2-dimethylbutane]
(R)-DMA Formed [2]: 18.6%

CC(N)CC(=O)O (racemic) [DL-3-Aminobutyric acid]
Substrate Specificity, relative activity [3]: 96% | Action of the transaminase on the substance (in words) [4]: does not act on | Substrate Specificity, relative activity [4]: 0%

NCCCC(=O)O [4-Aminobutyric acid]
Substrate Specificity, relative activity [3]: 40% | Relative Activity [5, 11]: 0% | Action of the transaminase on the substance (in words) [4]: does not act on | Substrate Specificity, relative activity [4]: 0%

COc1ccc(C[C@@H](C)N)cc1OC [(R)-DMA, (R)-1-(3,4-dimethoxyphenyl)-2-aminopropane]
Relative Activity [4]: 30% | (R)-DMA Formed [2]: 0.9%

NCc1ccccc1 [Benzylamine]
Substrate Specificity, relative activity [3]: 45% | Action of benzylamine transaminase on the substance (in words) ([6]; in the presence of pyruvic acid): strongly acts on | Substrate Specificity, relative activity [6]: 100% | Relative Activity [4]: 0.8% | Substrate Specificity, relative activity [4]: 0.8%

O=S(=O)([O-])[O-].[Cu+2] [CuSO4]
Relative activity with inhibitor [7]: 44% | Relative activity with inhibitor ([8]; inhibitor 0.5 mM): 5%

CC(C)(S)[C@@H](N)C(=O)O [D-Penicillamine]
Relative activity with inhibitor [7]: 93% | Relative activity with inhibitor ([8]; inhibitor 1 mM): 0%

NO [Hydroxylamine]
Influence of reaction inhibitor on the transaminase (in words) [7]: affected only a little | Relative activity with inhibitor [7]: 17% | Relative activity with inhibitor [9]: 0% | Relative activity with inhibitor ([8]; inhibitor 0.1 mM): 30%

NNc1ccccc1 [Phenylhydrazine]
Influence of reaction inhibitor on the transaminase (in words) [7]: affected only a little | Relative activity with inhibitor [7]: 82% | Relative activity with inhibitor ([8]; inhibitor 1 mM): 27%

NCCCCN [Putrescine]
Substrate Specificity, relative activity [3]: 55% | Relative Activity [5, 11]: 0% | Substrate Specificity, relative activity [6]: 0% | Action of the transaminase on the substance (in words) [4]: does not act on | Substrate Specificity, relative activity [4]: 0%

Cl.N [ammonium chloride]
Amino Group Donor (usable or not) [10]: cannot be used as an amino group donor

N[C@@H](CC(=O)O)C(=O)O [aspartic acid]
Amino Group Donor (usable or not) [10]: cannot be used as an amino group donor

N[C@@H](CCC(=O)O)C(=O)O [glutamic acid]
Amino Group Donor (usable or not) [10]: cannot be used as an amino group donor

CCCCN [n-Butylamine]
Substrate Specificity, relative activity [3]: 60% | Substrate Specificity, relative activity [6]: 0% | Action of the transaminase on the substance (in words) [4]: does not act on | Substrate Specificity, relative activity [4]: 0%

O=C(O)c1cc[c]([Hg][Cl])cc1 [p-Chloromercuribenzoic acid]
Relative activity with inhibitor [7]: 53% | Relative activity with inhibitor [9]: 100% | Relative activity with inhibitor ([8]; inhibitor 0.1 mM): 9%

NCCC(=O)O [β-Alanine]
Substrate Specificity, relative activity [3]: 100* % | Activity on the substance as amino group donor (in words) [5]: does not act on | Relative Activity ([5]; amino group acceptor pyruvic acid, (R)-1-phenylethylamine = 100 (control)): 0% | Substrate Specificity, relative activity [6]: 0* % | Action of the transaminase on the substance (in words) [4]: does not act on | Substrate Specificity, relative activity [4]: 0* %

NCCc1ccccc1 [β-Phenethylamine]
Substrate Specificity, relative activity [3]: 54% | Substrate Specificity, relative activity [6]: 9% | Substrate Specificity, relative activity [4]: 0%
